# Laboratory results reported in patent US20160038532A1, “Treatment of Multiple Sclerosis With Combination of Laquinimod and Glatiramer Acetate” (TEVA PHARMACEUTICAL INDUSTRIES, LTD., priority 2011, published 2016).
# Marks after values point to notes of the source that are not given here.
# What was measured:
# [1] = Weight of EAE mice (Example 2.1); type: in vivo, C57B1/6 mice
# From the text: FIG. 1 is a graphical representation of the experimental results from Example 2.1.
# The differences were statistically significant (by MANOVA). […] However, when the first signs appeared the mice started to lose weight. On days 16 and 24 the weight of control mice was statistically different from almost all the others (Table 4, FIG. 1B).
# MSCH-induced EAE = MSCH-induced EAE in CSJL/F1 mice (Example 2.8); type: in vivo; design: key to MMS value (Mean Maximal Score) / GMS value (Group Mean Score): EAE clinical score per grading table; 5 = sacrificed or died
# Procedure: Disease was induced in all mice by the injection of the encephalitogenic emulsion (MSCH/CFA). The test articles and the vehicle were administered orally twice a day.
# For groups 1 and 3 to 6, 360.0 mg MSCH was suspended in 3.0 ml PBS to yield 120 mg/ml MSCH suspension.
# 0.05 ml was injected into the left foot-pad of each mouse. The concentration of MSCH in emulsion in all groups was 60 mg/mL. The dose of the MSCH in all the groups was 3.0 mg/0.05 ml/mouse. The concentration of MT in emulsion in all groups was 0.25 mg/mL. The dose of the MT in all the groups was 0.0125 mg/0.05 ml/mouse.
# 36 μL Pertussis toxin (200 μg/ml) was added to 44.964 ml PBS to yield 160 ng/ml. The pertussis toxin was administered intravenous on the day of encephalitogen injection and 48 hours later (80.0 ng/0.5 ml/mouse).
# Solutions at concentration of 0.001, 0.01, 0.03 and 0.1 mg/mL laquinimod were prepared in water for dose levels of 0.01, 0.1, 0.3 and 1.0 mg/kg respectively. The test formulations were stored at 2 to 8° C. until use in amber colored bottles.
# The mice were administered with the respective dose levels of laquinimod at volume dose level of 200 μL/mouse. The test formulations were vortexed before dispensing in syringe.
# The different dose levels laquinimod were administered to the respective groups once a day.
# Scoring of EAE clinical signs was initiated from the 10th day post-EAE induction and was continued daily until Day 23. The clinical signs were recorded on observation cards according to a grading system described in the table 23 above. Animals with score 4 for more than three days were given score 5 and sacrificed for humane reasons. For calculation purposes, the score (5) of animals that are sacrificed or died were carried forward.
# The calculations are as shown in Example 2.4.
# MOG-induced EAE [2] = test: MOG-induced EAE, repeat study (Example 2.3); type: in vivo, C57B1/6 mice
# Procedure: 120 female C57B1/6 mice 8-10 weeks old were used the study. Mice were allocated randomly into 8 groups according to Table 7 below.
# 24 mg MOG was diluted in 8 ml PBS (3 mg/ml, stock solution). Groups 1, 3, 5 and 7: 4 ml of stock solution was diluted 1:1 with PBS. […] This solution was mixed 1:1 with the stock solution of MOG.
# The high dose LAQ (25 mg/10 ml/kg) solution (150 mg in 60 ml DDW) was prepared once weekly and stored in the amber glass at room temperature. The lower LAQ doses were prepared daily. For the dose of 5 mg/kg, 1.6 ml of stock solution were added to 6.4 ml DDW. For the dose 1 mg/kg, […] of the previous solution (intermediate dose) were added to 5.2 ml DDW. The compound was administered by gavage once daily during the hole experiment (30 days) at a volume of 0.2 ml/mouse.
# The mice were observed daily from the 10th day post-EAE induction (first injection of MOG) and the EAE clinical signs were scored according to the grades described in the 2 above.
# MOG-induced EAE [3] = test: Summary of studies of GA-blocking + laquinimod in MOG-induced EAE (Examples 2.1-2.3); type: in vivo, mice
# Procedure: FIG. 4 is a graphical representation summarizing experimental results from Examples 2.1-2.3.
# At higher doses (5 and 25 mg/kg) laquinimod provides an additive effect over GA-blocking as summarized in Table 9 and shown on FIGS. 4A and 4B.
# [4] = laquinimod 5 mg/kg/day, alone or + GA-blocking
# [5] = laquinimod 25 mg/kg/day, alone or + GA-blocking
# [6] = LAQ 0.01 mg/kg daily, orally by gavage
# [7] = LAQ 0.1 mg/kg daily, orally by gavage
# [8] = LAQ 0.3 mg/kg daily, orally by gavage
# [9] = LAQ 1.0 mg/kg daily, orally by gavage
# [10] = laquinimod 0.1 mg/kg/day oral, alone or + GA 0.5 mg/kg
# [11] = laquinimod 1 mg/kg/day gavage, alone or + GA-blocking 12.5 mg/kg day 0
# [12] = laquinimod 5 mg/kg/day gavage, alone or + GA-blocking 12.5 mg/kg day 0
# [13] = laquinimod 25 mg/kg/day gavage, alone or + GA-blocking 12.5 mg/kg day 0
# [14] = GA 0.5 mg/kg (sub optimal) with encephalitogen
# [15] = GA blocking 0.5 mg/kg (sub-optimal dose), with encephalitogen
# [16] = GA-blocking 12.5 mg/kg with inoculum day 0
compound,measurement,setting,value
CCN(C(=O)c1c(O)c2c(Cl)cccc2n(C)c1=O)c1ccccc1 [laquinimod],"weight, day 5 after induction",[1]; [4],17.5
same,"weight, day 10 after induction",[1]; [4],18.5
same,"weight, day 16 after induction",[1]; [4],18.6
same,"weight, day 24 after induction",[1]; [4],16.5
same,"weight, day 30 after induction",[1]; [4],16.0
same,"weight, day 5 after induction",[1]; [5],17.8
same,"weight, day 10 after induction",[1]; [5],18.9
same,"weight, day 16 after induction",[1]; [5],19.1*
same,"weight, day 24 after induction",[1]; [5],17.5
same,"weight, day 30 after induction",[1]; [5],17.6
same,% Inhibition 1 (according to Incidence),MSCH-induced EAE; [6],0.0%
same,% Inhibition 2 (according to MMS),MSCH-induced EAE; [6],24.4%
same,% Inhibition 3 (according to GMS),MSCH-induced EAE; [6],35.3%( )
same,GMS value (Group Mean Score),MSCH-induced EAE; [6],2.2 ± 1.2
same,Incidence,MSCH-induced EAE; [6],10/11
same,MMS value (Mean Maximal Score),MSCH-induced EAE; [6],3.4 ± 1.4
same,Mean Duration,MSCH-induced EAE; [6],9.5 days
same,Mortality,MSCH-induced EAE; [6],2/11
same,Onset,MSCH-induced EAE; [6],13.7 days
same,% Inhibition 1 (according to Incidence),MSCH-induced EAE; [7],90.0%
same,% Inhibition 2 (according to MMS),MSCH-induced EAE; [7],42.2%
same,% Inhibition 3 (according to GMS),MSCH-induced EAE; [7],55.9%( )
same,GMS value (Group Mean Score),MSCH-induced EAE; [7],1.5 ± 1.2
same,Incidence,MSCH-induced EAE; [7],1/11
same,MMS value (Mean Maximal Score),MSCH-induced EAE; [7],2.6 ± 1.8
same,Mean Duration,MSCH-induced EAE; [7],6.9 days
same,Mortality,MSCH-induced EAE; [7],8/11
same,Onset,MSCH-induced EAE; [7],16.5 days
same,% Inhibition 1 (according to Incidence),MSCH-induced EAE; [8],30.0%
same,% Inhibition 2 (according to MMS),MSCH-induced EAE; [8],53.3%
same,% Inhibition 3 (according to GMS),MSCH-induced EAE; [8],73.5%( )
same,GMS value (Group Mean Score),MSCH-induced EAE; [8],0.9 ± 0.9
same,Incidence,MSCH-induced EAE; [8],7/11
same,MMS value (Mean Maximal Score),MSCH-induced EAE; [8],2.1 ± 1.8
same,Mean Duration,MSCH-induced EAE; [8],4.2 days
same,Mortality,MSCH-induced EAE; [8],1/11
same,Onset,MSCH-induced EAE; [8],17.3 days
same,% Inhibition 1 (according to Incidence),MSCH-induced EAE; [9],90.0%
same,% Inhibition 2 (according to MMS),MSCH-induced EAE; [9],93.3%
same,% Inhibition 3 (according to GMS),MSCH-induced EAE; [9],97.1%( )
same,GMS value (Group Mean Score),MSCH-induced EAE; [9],0.1 ± 0.3
same,Incidence,MSCH-induced EAE; [9],1/11
same,MMS value (Mean Maximal Score),MSCH-induced EAE; [9],0.3 ± 0.9
same,Mean Duration,MSCH-induced EAE; [9],0.5 days
same,Mortality,MSCH-induced EAE; [9],0/11
same,Onset,MSCH-induced EAE; [9],23.5 days
same,Incidence,MSCH-induced EAE; laquinimod 0.01 mg/kg/day oral,91%
same,activity according to GMS,MSCH-induced EAE; laquinimod 0.01 mg/kg/day oral,35.3%
same,activity according to incidence,MSCH-induced EAE; laquinimod 0.01 mg/kg/day oral,9.1%
same,duration of disease,MSCH-induced EAE; laquinimod 0.01 mg/kg/day oral,13.7 ± 3.8 days
same,onset of disease,MSCH-induced EAE; laquinimod 0.01 mg/kg/day oral,9.5 ± 3.9 days
same,activity according to GMS,MSCH-induced EAE; [10],55.9%
same,activity according to incidence,MSCH-induced EAE; [10],27.3%
same,activity according to GMS,MSCH-induced EAE; laquinimod 0.3 mg/kg/day oral,73.5%
same,activity according to incidence,MSCH-induced EAE; laquinimod 0.3 mg/kg/day oral,36.4%
same,activity (conclusion),"MSCH-induced EAE; laquinimod 1.0 mg/kg as printed, alone or + GA 0.5 mg/kg",55.9%
same,activity according to GMS,MSCH-induced EAE; laquinimod 1.0 mg/kg/day oral,97.1%
same,activity according to incidence,MSCH-induced EAE; laquinimod 1.0 mg/kg/day oral,90.9%
same,inhibition at 1 mg/kg,"MOG-induced EAE [2]; Mus musculus, po, 0 h, laquinimod 1 mg/kg/day gavage, alone or + GA-blocking 12.5 mg/kg day 0, read-out: % inhibition compared to Control (GMS)",-1.2%
same,inhibition at 5 mg/kg,"MOG-induced EAE [2]; Mus musculus, po, 0 h, laquinimod 5 mg/kg/day gavage, alone or + GA-blocking 12.5 mg/kg day 0, read-out: % inhibition compared to Control (GMS)",70%
same,inhibition at 25 mg/kg,"MOG-induced EAE [2]; Mus musculus, po, 0 h, laquinimod 25 mg/kg/day gavage, alone or + GA-blocking 12.5 mg/kg day 0, read-out: % inhibition compared to Control (GMS)",95%
same,Group Mean Score,MOG-induced EAE [2]; [11],2.50
same,Incidence,MOG-induced EAE [2]; [11],15/15
same,Mean Disease Duration,MOG-induced EAE [2]; [11],14.1 days
same,Mean Maximal Score,MOG-induced EAE [2]; [11],4.27
same,Mean Onset,MOG-induced EAE [2]; [11],13.7 days
same,Mortality,MOG-induced EAE [2]; [11],4/15
same,Group Mean Score,MOG-induced EAE [2]; [12],0.74**
same,Incidence,MOG-induced EAE [2]; [12],11/15
same,Mean Disease Duration,MOG-induced EAE [2]; [12],6.3*** days
same,Mean Maximal Score,MOG-induced EAE [2]; [12],2.23*
same,Mean Onset,MOG-induced EAE [2]; [12],21.0*** days
same,Mortality,MOG-induced EAE [2]; [12],0/15
same,% inhibition compared to Control (GMS),MOG-induced EAE [2]; [13],95.1%
same,Group Mean Score,MOG-induced EAE [2]; [13],0.12***
same,Incidence,MOG-induced EAE [2]; [13],6/15
same,Mean Disease Duration,MOG-induced EAE [2]; [13],1.5*** days
same,Mean Maximal Score,MOG-induced EAE [2]; [13],0.77***
same,Mean Onset,MOG-induced EAE [2]; [13],24.7*** days
same,Mortality,MOG-induced EAE [2]; [13],0/15
same,inhibition at 2.5 mg/kg,"MOG-induced EAE [3]; Mus musculus, laquinimod 2.5 mg/kg, alone or + GA Blocking, read-out: Mean percent inhibition, Examples 2.1-2.3 summarized",53.6%
same,inhibition at 5 mg/kg,"MOG-induced EAE [3]; Mus musculus, laquinimod 5 mg/kg, alone or + GA Blocking, read-out: Mean percent inhibition, Examples 2.1-2.3 summarized",57.3%
same,inhibition at 25 mg/kg,"MOG-induced EAE [3]; Mus musculus, laquinimod 25 mg/kg, alone or + GA Blocking, read-out: Mean percent inhibition, Examples 2.1-2.3 summarized",74.9%
"L-glutamic acid polymer with L-alanine, L-lysine and L-tyrosine, acetate (salt) [GA]","weight, day 5 after induction",[1]; GA-blocking alone,17.9
same,"weight, day 10 after induction",[1]; GA-blocking alone,19.3
same,"weight, day 16 after induction",[1]; GA-blocking alone,19.9**
same,"weight, day 24 after induction",[1]; GA-blocking alone,18.0*
same,"weight, day 30 after induction",[1]; GA-blocking alone,18.2
same,Incidence,MSCH-induced EAE; [14],4/11
same,MMS,MSCH-induced EAE; [14],1.1±15
same,activity according to GMS,MSCH-induced EAE; [14],79.4%
same,% Inhibition 1 (according to Incidence),MSCH-induced EAE; [15],60.0%
same,% Inhibition 2 (according to MMS),MSCH-induced EAE; [15],75.5%
same,% Inhibition 3 (according to GMS),MSCH-induced EAE; [15],79.4%( )
same,GMS value (Group Mean Score),MSCH-induced EAE; [15],0.7 ± 1.0
same,Incidence,MSCH-induced EAE; [15],4/11
same,MMS value (Mean Maximal Score),MSCH-induced EAE; [15],1.1 ± 1.5
same,Mean Duration,MSCH-induced EAE; [15],3.6 days
same,Onset,MSCH-induced EAE; [15],20.4 days
same,% inhibition compared to Control (GMS),MOG-induced EAE [2]; [16],78.9%
same,Group Mean Score,MOG-induced EAE [2]; [16],0.52***
same,Incidence,MOG-induced EAE [2]; [16],5/15
same,Mean Disease Duration,MOG-induced EAE [2]; [16],3.7*** days
same,Mean Maximal Score,MOG-induced EAE [2]; [16],0.97***
same,Mean Onset,MOG-induced EAE [2]; [16],25.6*** days
same,"Mean percent inhibition, Examples 2.1-2.3 summarized",MOG-induced EAE [3]; GA-blocking alone,67.6%
